According to PubChem BioAssay (NCI):
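Interpolation was linear, between the two tested concentrations surrounding the appropriate level; five concentrations were tested over 48 hours in 96-well plates. TGI: concentration producing complete growth inhibition.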

Key:
Experiment in all cases: DTP human tumour cell line panel, 48 h
SK-MEL-5 melanoma = system: SK-MEL-5 melanoma
U251 CNS = system: U251 CNS
HCT-15 colon = system: HCT-15 colon
NCI/ADR-RES ovarian = system: NCI/ADR-RES ovarian
KM12 colon = system: KM12 colon
NCI-H460 lung = system: NCI-H460 lung
MDA-N = system: MDA-N
HOP-62 NSCLC = system: HOP-62 NSCLC
UACC-62 melanoma = system: UACC-62 melanoma
SK-MEL-2 melanoma = system: SK-MEL-2 melanoma
OVCAR-5 ovarian = system: OVCAR-5 ovarian
M14 melanoma = system: M14 melanoma
NCI-H23 lung = system: NCI-H23 lung
SNB-19 CNS = system: SNB-19 CNS
MDA-MB-231 breast = system: MDA-MB-231 breast
SNB-75 CNS = system: SNB-75 CNS
K-562 leukemia = system: K-562 leukemia
BT-549 breast = system: BT-549 breast
DU-145 prostate = system: DU-145 prostate
T-47D breast = system: T-47D breast
PC-3 prostate = system: PC-3 prostate
HCT-116 colon = system: HCT-116 colon
SF-268 CNS = system: SF-268 CNS
SF-295 CNS = system: SF-295 CNS
MALME-3M melanoma = system: MALME-3M melanoma
SN12C renal = system: SN12C renal
SR leukemia = system: SR leukemia
NCI-H226 lung = system: NCI-H226 lung
A549 NSCLC = system: A549 NSCLC
HS 578T breast = system: HS 578T breast
786-0 renal = system: 786-0 renal
SK-MEL-28 melanoma = system: SK-MEL-28 melanoma
MDA-MB-435 = system: MDA-MB-435
TK-10 renal = system: TK-10 renal
MCF7 breast = system: MCF7 breast
A498 renal = system: A498 renal
NCI-H522 lung = system: NCI-H522 lung
OVCAR-8 ovarian = system: OVCAR-8 ovarian
ACHN renal = system: ACHN renal
CAKI-1 renal = system: CAKI-1 renal
UACC-257 melanoma = system: UACC-257 melanoma
HL-60(TB) leukemia = system: HL-60(TB) leukemia
SW-620 colon = system: SW-620 colon
HCC-2998 colon = system: HCC-2998 colon
MOLT-4 leukemia = system: MOLT-4 leukemia
UO-31 renal = system: UO-31 renal
OVCAR-3 ovarian = system: OVCAR-3 ovarian
COLO 205 colon = system: COLO 205 colon
CCRF-CEM leukemia = system: CCRF-CEM leukemia
SK-OV-3 ovarian = system: SK-OV-3 ovarian
IGROV1 ovarian = system: IGROV1 ovarian
SF-539 CNS = system: SF-539 CNS
HT29 colon = system: HT29 colon
RPMI-8226 leukemia = system: RPMI-8226 leukemia
OVCAR-4 ovarian = system: OVCAR-4 ovarian
LOX IMVI melanoma = system: LOX IMVI melanoma
RXF 393 renal = system: RXF 393 renal

For CN(C)CCCNC(=O)N/N=C/c1ccc([N+](=O)[O-])cc1, the TGI (SK-MEL-5 melanoma) was over 100 µM, the TGI (U251 CNS) was over 100 µM and the TGI (HCT-15 colon) was over 100 µM. For the same molecule, the TGI (NCI/ADR-RES ovarian) was over 100 µM, the TGI (KM12 colon) was over 100 µM and the TGI (NCI-H460 lung) was over 100 µM. It also gave a TGI (MDA-N) of over 100 µM, a TGI (HOP-62 NSCLC) of over 100 µM and a TGI (UACC-62 melanoma) of over 100 µM. The TGI (SK-MEL-2 melanoma) was over 100 µM, the TGI (OVCAR-5 ovarian) was over 100 µM and the TGI (M14 melanoma) was over 100 µM. It also gave a TGI (NCI-H23 lung) of over 100 µM, a TGI (SNB-19 CNS) of over 100 µM and a TGI (MDA-MB-231 breast) of over 100 µM. The TGI (SNB-75 CNS) was over 100 µM, the TGI (K-562 leukemia) was over 100 µM and the TGI (BT-549 breast) was over 100 µM. The TGI (DU-145 prostate) was over 100 µM, the TGI (T-47D breast) was over 100 µM and the TGI (PC-3 prostate) was over 100 µM. The TGI (HCT-116 colon) was over 100 µM, the TGI (SF-268 CNS) was over 100 µM and the TGI (SF-295 CNS) was over 100 µM. For the same molecule, the TGI (MALME-3M melanoma) was over 100 µM, the TGI (SN12C renal) was over 100 µM and the TGI (SR leukemia) was over 100 µM. It also gave a TGI (NCI-H226 lung) of over 100 µM, a TGI (A549 NSCLC) of over 100 µM and a TGI (HS 578T breast) of over 100 µM. For the same molecule, the TGI (786-0 renal) was over 100 µM, the TGI (SK-MEL-28 melanoma) was over 100 µM and the TGI (MDA-MB-435) was over 100 µM. The TGI (TK-10 renal) was over 100 µM, the TGI (MCF7 breast) was over 100 µM and the TGI (A498 renal) was over 100 µM. The TGI (NCI-H522 lung) was over 100 µM, the TGI (OVCAR-8 ovarian) was over 100 µM and the TGI (ACHN renal) was over 100 µM. For the same molecule, the TGI (CAKI-1 renal) was over 100 µM, the TGI (UACC-257 melanoma) was over 100 µM and the TGI (HL-60(TB) leukemia) was over 100 µM. The TGI (SW-620 colon) was over 100 µM, the TGI (HCC-2998 colon) was over 100 µM and the TGI (MOLT-4 leukemia) was over 100 µM. For the same molecule, the TGI (UO-31 renal) was over 100 µM, the TGI (OVCAR-3 ovarian) was over 100 µM and the TGI (COLO 205 colon) was over 100 µM. For the same molecule, the TGI (CCRF-CEM leukemia) was over 100 µM, the TGI (SK-OV-3 ovarian) was over 100 µM and the TGI (IGROV1 ovarian) was over 100 µM. It also gave a TGI (SF-539 CNS) of over 100 µM and a TGI (HT29 colon) of over 100 µM.

With COc1cc(C[C@@H](C)N)cc(OC)c1 the TGI (SK-MEL-5 melanoma) was over 100 µM, the TGI (U251 CNS) was over 100 µM and the TGI (HCT-15 colon) was over 100 µM. For the same molecule, the TGI (NCI/ADR-RES ovarian) was over 100 µM, the TGI (KM12 colon) was over 100 µM and the TGI (NCI-H460 lung) was over 100 µM. It also gave a TGI (MDA-N) of over 100 µM, a TGI (RPMI-8226 leukemia) of over 100 µM and a TGI (HOP-62 NSCLC) of over 100 µM. For the same molecule, the TGI (UACC-62 melanoma) was over 100 µM, the TGI (SK-MEL-2 melanoma) was over 100 µM and the TGI (OVCAR-4 ovarian) was over 100 µM. It also gave a TGI (OVCAR-5 ovarian) of over 100 µM, a TGI (LOX IMVI melanoma) of over 100 µM and a TGI (M14 melanoma) of over 100 µM. The TGI (NCI-H23 lung) was over 100 µM, the TGI (SNB-19 CNS) was over 100 µM and the TGI (MDA-MB-231 breast) was over 100 µM. It also gave a TGI (SNB-75 CNS) of 98.4 µM, a TGI (K-562 leukemia) of over 100 µM and a TGI (BT-549 breast) of over 100 µM. For the same molecule, the TGI (DU-145 prostate) was over 100 µM, the TGI (T-47D breast) was over 100 µM and the TGI (PC-3 prostate) was over 100 µM. It also gave a TGI (HCT-116 colon) of over 100 µM, a TGI (SF-268 CNS) of over 100 µM and a TGI (SF-295 CNS) of over 100 µM. It also gave a TGI (MALME-3M melanoma) of over 100 µM, a TGI (SN12C renal) of over 100 µM and a TGI (SR leukemia) of over 100 µM. The TGI (NCI-H226 lung) was over 100 µM, the TGI (A549 NSCLC) was over 100 µM and the TGI (HS 578T breast) was over 100 µM. It also gave a TGI (786-0 renal) of over 100 µM, a TGI (SK-MEL-28 melanoma) of over 100 µM and a TGI (MDA-MB-435) of over 100 µM. The TGI (TK-10 renal) was over 100 µM, the TGI (MCF7 breast) was over 100 µM and the TGI (A498 renal) was over 100 µM. It also gave a TGI (NCI-H522 lung) of over 100 µM, a TGI (OVCAR-8 ovarian) of over 100 µM and a TGI (ACHN renal) of over 100 µM. For the same molecule, the TGI (RXF 393 renal) was over 100 µM, the TGI (CAKI-1 renal) was over 100 µM and the TGI (UACC-257 melanoma) was over 100 µM. It also gave a TGI (HL-60(TB) leukemia) of over 100 µM, a TGI (SW-620 colon) of over 100 µM and a TGI (HCC-2998 colon) of over 100 µM. It also gave a TGI (MOLT-4 leukemia) of over 100 µM, a TGI (UO-31 renal) of over 100 µM and a TGI (OVCAR-3 ovarian) of over 100 µM. For the same molecule, the TGI (COLO 205 colon) was over 100 µM, the TGI (CCRF-CEM leukemia) was over 100 µM and the TGI (SK-OV-3 ovarian) was over 100 µM. It also gave a TGI (IGROV1 ovarian) of over 100 µM, a TGI (SF-539 CNS) of over 100 µM and a TGI (HT29 colon) of over 100 µM.
